Results: patent US7772183B2 (Bristol-Myers Squibb Company, priority 2005, dated 2010)

Legend:
[1] = system: HCV replicon (Renilla luciferase reporter) in HUH-7 cells; assay: HCV replicon luciferase reporter assay; format: cell-based, Hepatitis C virus (strain 1b); settings: Huh-7, 96 h, 4 days
From the text: An HCV replicon whole cell system was established as described by Lohmann V, Komer F, Koch J, Herian U, Theilmann L, Bartenschlager R., Science 285(5424):110-3 (1999). This system enabled us to evaluate the effects of our HCV Protease compounds on HCV RNA replication. Briefly, using the HCV strain 1b sequence described in the Lohmann paper (Assession number: AJ238799), an HCV cDNA was synthesized by Operon Technologies, Inc. (Alameda, Calif.), and the full-length replicon was then assembled in plasmid pGem9zf(+) (Promega, Madison, Wis.) using standard molecular biology techniques. The replicon consists of (i) the HCV 5′ UTR fused to the first 12 amino acids of the capsid protein, (ii) the neomycin phosphotransferase gene (neo), (iii) the IRES from encephalomyocarditis virus (EMCV), and (iv) HCV NS3 to NS5B genes and the HCV 3′ UTR. […]
As a secondary assay, EC50 determinations from the replicon FRET assay were confirmed in a replicon luciferase reporter assay. […] Following 4 days in a 37° C./5% CO2 incubator, cells were analyzed for Renilla Luciferase activity using the Promega Dual-Glo Luciferase Assay System. […] Plates were read on a Packard TopCount NXT using a luminescence program.
The percentage inhibition was calculated using the formula below: […]
The values were graphed and analyzed using XLfit to obtain the EC50 value.

human liver cathepsin B = molecular target: T1, human liver cathepsin B (Homo sapiens, UniProt P07858); assay: Specificity assay, cathepsin B; format: biochemical; settings: read-out: Cathepsin B activity in the specificity assays
T1 construct: purchased Sigma or EMDbiosciences; host or cells: human liver (as named)
Experimental: (§1) The specificities of compounds of the present disclosure were determined against a variety of serine proteases: human neutrophil elastase (HNE), porcine pancreatic elastase (PPE) and human pancreatic chymotrypsin and one cysteine protease: human liver cathepsin B. In all cases, a 96-well plate format protocol using colorimetric p-nitroaniline (pNA) substrate or fluorometric Amino-Methyl-Coumarin (AMC) substrate, specific for each enzyme was used as described previously (PCT Patent Application No. WO 00/09543) with some modifications. All enzymes were purchased from Sigma or EMDbiosciences while the substrates were from Bachem.
(§2) Each pNA assay included a 2 h enzyme-inhibitor pre-incubation at room temperature followed by addition of substrate and hydrolysis to ˜15% conversion as measured on a Spectramax Pro microplate reader. The cathepsin B assay was initiated by adding substrate to a 10 min enzyme-inhibitor pre-incubation at room temperature, and the assay plate measured immediately using the Cytofluor Series 4000. Compound concentrations varied from 100 to 0.4 μM depending on their potency.
(§3) The final conditions for each assay were as follows: […]
(§4) The percentage of inhibition was calculated using the formula: [1−((UVinh−UVblank)/(UVctl−UVblank))]×100 […]

[2] = molecular target: T2, human neutrophil elastase (HNE) (Homo sapiens, UniProt P08246); assay: Specificity assay, neutrophil elastase; format: biochemical; settings: read-out: HLE activity in the specificity assays
T2 construct: purchased Sigma or EMDbiosciences
T2 sequence (P08246 30-267): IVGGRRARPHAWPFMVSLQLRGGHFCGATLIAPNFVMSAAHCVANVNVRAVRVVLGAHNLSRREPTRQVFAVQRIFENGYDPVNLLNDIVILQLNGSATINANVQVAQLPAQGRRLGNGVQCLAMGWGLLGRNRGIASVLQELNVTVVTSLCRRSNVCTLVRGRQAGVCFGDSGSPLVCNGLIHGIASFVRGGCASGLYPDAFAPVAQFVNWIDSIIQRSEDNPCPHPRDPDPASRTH
Experimental: as §1, §2, §3, §4

CC(C)(C)OC(=O)N[C@H]1CCCCC/C=C\[C@@H]2C[C@@]2(C(=O)NS(=O)(=O)C2CC2)NC(=O)[C@@H]2C[C@@H](OC(=O)c3ccc(C#N)cc3)CN2C1=O [Compound 26, 18-(4-cyanobenzoyloxy)-14-tert-butoxycarbonylamino-4-cyclopropylsulfonylaminocarbonyl-2,15-dioxo-3,16-diazatricyclo-[14.3.0.0^4,6]-nonadec-7-ene]
EC50 [1]: 0.0043 µM
IC50 (human liver cathepsin B): ≥ 100 µM
IC50 [2]: > 100 µM
